According to US20260327191A1, “GSK3a INHIBITORS AND METHODS OF USE THEREOF” (Blueprint Medicines Corporation, priority 2023, published 2026):

Legend:
GSK3B [1] = molecular target: T1, GSK3B (Homo sapiens, UniProt P49841); assay: In vitro enzymatic activity assay, GSK3β; type: biochemical; design: Full length human GSK3α or GSK3B expressed as N-terminal GST fusion proteins; GST (N); purchased Carna Biosciences (Japan); host or cells: baculovirus host; settings: 1.0 mM ATP, 1.0 μM peptide substrate, 120 min, 25° C, read-out: Enzyme GSK3β (IC50)
GSK3A = molecular target: T2, GSK3A (Homo sapiens, UniProt P49840); assay: NanoBRET cellular target engagement assay, Nanoluc-GSK3A in HEK293 cells; type: cell-based; settings: NanoBRET GSK3α IC50, HEK293 cells, tracer K-8, 2 hours, 37° C
T2 construct: expressed in transfected cells

GSK3B [2] = molecular target: T1, GSK3B; assay: NanoBRET cellular target engagement assay, Nanoluc-GSK3B in HEK293 cells; type: cell-based; design: expressed in transfected cells; settings: NanoBRET GSK3β IC50, HEK293 cells, tracer K-8, 2 hours, 37° C
human GSK3α = molecular target: T3, human GSK3α (Homo sapiens, UniProt P49840); assay: In vitro enzymatic activity assay, GSK3α; type: biochemical; settings: 1.0 mM ATP, 1.0 μM peptide substrate, 120 min, 25° C, read-out: Enzyme GSK3α (IC50)
T3 construct: Full length human GSK3α or GSK3B expressed as N-terminal GST fusion proteins; GST (N); purchased Carna Biosciences (Japan); host or cells: baculovirus host
T3 sequence (P49840 whole entry, the tested form may be a part): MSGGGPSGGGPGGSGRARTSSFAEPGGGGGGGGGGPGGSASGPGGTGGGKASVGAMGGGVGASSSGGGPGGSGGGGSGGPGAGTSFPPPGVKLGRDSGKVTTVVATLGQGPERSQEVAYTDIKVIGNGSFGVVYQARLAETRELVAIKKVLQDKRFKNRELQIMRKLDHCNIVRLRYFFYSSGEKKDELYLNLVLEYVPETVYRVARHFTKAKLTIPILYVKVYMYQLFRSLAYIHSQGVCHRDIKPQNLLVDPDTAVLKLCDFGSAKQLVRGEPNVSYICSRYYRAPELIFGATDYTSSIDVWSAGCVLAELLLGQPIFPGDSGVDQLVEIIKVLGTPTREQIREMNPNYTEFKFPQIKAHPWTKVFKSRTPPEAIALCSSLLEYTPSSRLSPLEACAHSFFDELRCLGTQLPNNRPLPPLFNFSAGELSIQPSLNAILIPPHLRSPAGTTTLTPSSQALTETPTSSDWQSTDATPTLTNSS

T2 sequence (P49840 whole entry): as the sequence (P49840 whole entry, the tested form may be a part) above
T1 sequence (P49841 whole entry, the tested form may be a part): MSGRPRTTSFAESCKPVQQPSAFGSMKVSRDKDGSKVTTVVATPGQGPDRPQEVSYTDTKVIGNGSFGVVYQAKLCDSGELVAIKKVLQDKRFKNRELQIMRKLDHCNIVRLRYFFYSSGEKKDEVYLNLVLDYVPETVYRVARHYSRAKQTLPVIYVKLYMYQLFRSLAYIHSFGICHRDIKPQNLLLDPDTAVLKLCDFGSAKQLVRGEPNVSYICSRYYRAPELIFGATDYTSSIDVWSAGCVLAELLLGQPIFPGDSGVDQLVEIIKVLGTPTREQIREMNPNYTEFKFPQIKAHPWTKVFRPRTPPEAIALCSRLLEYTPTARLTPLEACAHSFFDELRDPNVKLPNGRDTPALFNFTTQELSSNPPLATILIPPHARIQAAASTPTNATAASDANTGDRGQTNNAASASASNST

Row | Compound | IC50 (GSK3B [1]) | IC50 (GSK3A) | IC50 (GSK3B [2]) | IC50 (human GSK3α)
1 | CCOc1cc(Cl)c(-n2cnc(N)c(C(=O)Nc3cncc(C(N)CC)c3)c2=O)c(Cl)c1 (single isomer, unassigned) [Example 136, (R)-4-amino-N-(5-(1-aminopropyl)pyridin-3-yl)-1-(2,6-dichloro-4-ethoxyphenyl)-6-oxo-1,6-dihydropyrimidine-5-carboxamide or (S)-4-amino-N-(5-(1-aminopropyl)pyridin-3-yl)-1-(2,6-dichloro-4-ethoxyphenyl)-6-oxo-1,6-dihydropyrimidine-5-carboxamide] | 206 nM | 1.8 nM | 118 nM | 2.9 nM
2 | CCOc1cc(Cl)c(-n2cnc(N)c(C(=O)Nc3cncc(C(N)C4CC4)c3)c2=O)c(Cl)c1 (single isomer, unassigned) [Example 139, (R)-4-amino-N-(5-(amino(cyclopropyl)methyl)pyridin-3-yl)-1-(2,6-dichloro-4-ethoxyphenyl)-6-oxo-1,6-dihydropyrimidine-5-carboxamide or (S)-4-amino-N-(5-(amino(cyclopropyl)methyl)pyridin-3-yl)-1-(2,6-dichloro-4-ethoxyphenyl)-6-oxo-1,6-dihydropyrimidine-5-carboxamide] | 560 nM | 5.1 nM | 281 nM | 10.9 nM
3 | CCOCC(N)c1cncc(NC(=O)c2c(N)ncn(-c3c(Cl)cc(OCC)cc3Cl)c2=O)c1 (single isomer, unassigned) [Example 140, (R)-4-amino-N-(5-(1-amino-2-ethoxyethyl)pyridin-3-yl)-1-(2,6-dichloro-4-ethoxyphenyl)-6-oxo-1,6-dihydropyrimidine-5-carboxamide or (S)-4-amino-N-(5-(1-amino-2-ethoxyethyl)pyridin-3-yl)-1-(2,6-dichloro-4-ethoxyphenyl)-6-oxo-1,6-dihydropyrimidine-5-carboxamide] | 1240 nM | 9.2 nM | 616 nM | 24.2 nM
4 | CCOc1cc(Cl)c(-n2cnc(N)c(C(=O)Nc3cncc(C(C)N)c3)c2=O)c(Cl)c1 (single isomer, unassigned) [Example 142, (R)-4-amino-N-(5-(1-aminoethyl)pyridin-3-yl)-1-(2,6-dichloro-4-ethoxyphenyl)-6-oxo-1,6-dihydropyrimidine-5-carboxamide or (S)-4-amino-N-(5-(1-aminoethyl)pyridin-3-yl)-1-(2,6-dichloro-4-ethoxyphenyl)-6-oxo-1,6-dihydropyrimidine-5-carboxamide] | 421 nM | 4.7 nM | 350 nM | 9.8 nM
5 | CCOc1cc(Cl)c(-n2cnc(N)c(C(=O)Nc3cncc(C(N)CC(F)F)c3)c2=O)c(Cl)c1 (single isomer, unassigned) [Example 143, (R)-4-amino-N-(5-(1-amino-3,3-difluoropropyl)pyridin-3-yl)-1-(2,6-dichloro-4-ethoxyphenyl)-6-oxo-1,6-dihydropyrimidine-5-carboxamide or (S)-4-amino-N-(5-(1-amino-3,3-difluoropropyl)pyridin-3-yl)-1-(2,6-dichloro-4-ethoxyphenyl)-6-oxo-1,6-dihydropyrimidine-5-carboxamide] | 207 nM | 4.1 nM | 280 nM | 4.9 nM
6 | Cc1cc(C)c(-n2cnc(N)c(C(=O)Nc3cncc(C(C)N)c3)c2=O)c(C)c1 (single isomer, unassigned) [Example 147, (R)-4-amino-N-(5-(1-aminoethyl)pyridin-3-yl)-1-mesityl-6-oxo-1,6-dihydropyrimidine-5-carboxamide or (S)-4-amino-N-(5-(1-aminoethyl)pyridin-3-yl)-1-mesityl-6-oxo-1,6-dihydropyrimidine-5-carboxamide] | 392 nM | 3.8 nM | 354 nM | 8.8 nM
7 | C#CCC(N)c1cncc(NC(=O)c2c(N)ncn(-c3c(Cl)cc(OCC)cc3Cl)c2=O)c1 (single isomer, unassigned) [Example 151, (R)-4-amino-N-(5-(1-aminobut-3-yn-1-yl)pyridin-3-yl)-1-(2,6-dichloro-4-ethoxyphenyl)-6-oxo-1,6-dihydropyrimidine-5-carboxamide or (S)-4-amino-N-(5-(1-aminobut-3-yn-1-yl)pyridin-3-yl)-1-(2,6-dichloro-4-ethoxyphenyl)-6-oxo-1,6-dihydropyrimidine-5-carboxamide] | 501 nM | 7.1 nM | 406 nM | 14.9 nM

Continued, values first:

Row | IC50 (GSK3B [1]) | IC50 (GSK3A) | IC50 (GSK3B [2]) | IC50 (human GSK3α) | Compound
8 | 129 nM | 1.7 nM | 87.1 nM | 1.9 nM | CCOc1cc(Cl)c(-n2cnc(N)c(C(=O)Nc3cncc(C(C)N)c3)c2=O)c(Cl)c1 (single isomer, unassigned) [Example 137, (R)-4-amino-N-(5-(1-aminoethyl)pyridin-3-yl)-1-(2,6-dichloro-4-ethoxyphenyl)-6-oxo-1,6-dihydropyrimidine-5-carboxamide or (S)-4-amino-N-(5-(1-aminoethyl)pyridin-3-yl)-1-(2,6-dichloro-4-ethoxyphenyl)-6-oxo-1,6-dihydropyrimidine-5-carboxamide]
9 | 232 nM | 2.9 nM | 318 nM | 4.1 nM | CCOc1cc(Cl)c(-n2cnc(N)c(C(=O)Nc3cncc(C(COC)NC)c3)c2=O)c(Cl)c1 (single isomer, unassigned) [Example 141, (R)-4-amino-1-(2,6-dichloro-4-ethoxyphenyl)-N-(5-(2-methoxy-1-(methylamino)ethyl)pyridin-3-yl)-6-oxo-1,6-dihydropyrimidine-5-carboxamide or (S)-4-amino-1-(2,6-dichloro-4-ethoxyphenyl)-N-(5-(2-methoxy-1-(methylamino)ethyl)pyridin-3-yl)-6-oxo-1,6-dihydropyrimidine-5-carboxamide]
10 | 472 nM | 5 nM | 375 nM | 11 nM | Cc1cc(CC(F)F)cc(C)c1-n1cnc(N)c(C(=O)Nc2cncc(C(C)N)c2)c1=O (single isomer, unassigned) [Example 144, (R)-4-amino-N-(5-(1-aminoethyl)pyridin-3-yl)-1-(4-(2,2-difluoroethyl)-2,6-dimethylphenyl)-6-oxo-1,6-dihydropyrimidine-5-carboxamide or (S)-4-amino-N-(5-(1-aminoethyl)pyridin-3-yl)-1-(4-(2,2-difluoroethyl)-2,6-dimethylphenyl)-6-oxo-1,6-dihydropyrimidine-5-carboxamide]
11 | 355 nM | 3.7 nM | 340 nM | 7.7 nM | Cc1cc(C)c(-n2cnc(N)c(C(=O)Nc3cncc(C4CCCCCN4)c3)c2=O)c(C)c1 (single isomer, unassigned) [Example 146, (R)-4-amino-N-(5-(azepan-2-yl)pyridin-3-yl)-1-mesityl-6-oxo-1,6-dihydropyrimidine-5-carboxamide or (S)-4-amino-N-(5-(azepan-2-yl)pyridin-3-yl)-1-mesityl-6-oxo-1,6-dihydropyrimidine-5-carboxamide]
12 | 317 nM | 4.3 nM | 349 nM | 7.2 nM | CCc1cc(C)c(-n2cnc(N)c(C(=O)Nc3cncc(C4CCCCCN4)c3)c2=O)c(C)c1 (single isomer, unassigned) [Example 148, (R)-4-amino-N-(5-(azepan-2-yl)pyridin-3-yl)-1-(4-ethyl-2,6-dimethylphenyl)-6-oxo-1,6-dihydropyrimidine-5-carboxamide or (S)-4-amino-N-(5-(azepan-2-yl)pyridin-3-yl)-1-(4-ethyl-2,6-dimethylphenyl)-6-oxo-1,6-dihydropyrimidine-5-carboxamide]
13 | 44.2 nM | 1 nM | 49.5 nM | 1.1 nM | C#CCC(N)c1cncc(NC(=O)c2c(N)ncn(-c3c(Cl)cc(OCC)cc3Cl)c2=O)c1 (single isomer, unassigned) [Example 150, (R)-4-amino-N-(5-(1-aminobut-3-yn-1-yl)pyridin-3-yl)-1-(2,6-dichloro-4-ethoxyphenyl)-6-oxo-1,6-dihydropyrimidine-5-carboxamide or (S)-4-amino-N-(5-(1-aminobut-3-yn-1-yl)pyridin-3-yl)-1-(2,6-dichloro-4-ethoxyphenyl)-6-oxo-1,6-dihydropyrimidine-5-carboxamide]
14 | 346 nM | 6.4 nM | 491 nM | 7.8 nM | CCC(N)c1cncc(NC(=O)c2c(N)ncn(-c3c(Cl)cncc3Cl)c2=O)c1 (single isomer, unassigned) [Example 153, (R)-4-amino-N-(5-(1-aminopropyl)pyridin-3-yl)-1-(3,5-dichloropyridin-4-yl)-6-oxo-1,6-dihydropyrimidine-5-carboxamide or (S)-4-amino-N-(5-(1-aminopropyl)pyridin-3-yl)-1-(3,5-dichloropyridin-4-yl)-6-oxo-1,6-dihydropyrimidine-5-carboxamide]
15 | 374 nM | 3.7 nM | 279 nM | 9.9 nM | Cc1cc(CCF)cc(C)c1-n1cnc(N)c(C(=O)Nc2cncc(C(C)N)c2)c1=O (single isomer, unassigned) [Example 155, (R)-4-amino-N-(5-(1-aminoethyl)pyridin-3-yl)-1-(4-(2-fluoroethyl)-2,6-dimethylphenyl)-6-oxo-1,6-dihydropyrimidine-5-carboxamide or (S)-4-amino-N-(5-(1-aminoethyl)pyridin-3-yl)-1-(4-(2-fluoroethyl)-2,6-dimethylphenyl)-6-oxo-1,6-dihydropyrimidine-5-carboxamide]
